According to patent EP2359864B1, “Targeting Vector-Phospholipid Conjugates” (Bracco Suisse SA, priority 2005, dated 2019):
Like-named read-outs stand apart in the source and are kept apart here. Numbered stars: 1 amine (or outer) side, 2 acyl side, 3 side chain; on linkers, the order of the positions; unused ones are H or OH. Side chains are listed from the residue outwards. * marks the point of attachment. DSPE = CCCCCCCCCCCCCCCCCC(=O)OC[C@H](COP(=O)(O)OCCN*)OC(=O)CCCCCCCCCCCCCCCCC; Glutaryl = O=C(CCCC(=O)[*:2])[*:1]

Experiments:
KDR [1] = assay: Binding affinity of peptide monomers to KDR (statement only); settings: statement in the description, no data shown
[2] = tested on: KDR receptor expressed on the endothelium of neovessels; assay: In vivo ultrasound imaging of KDR-targeted contrast agents, rabbit VX2 tumor model; design: species or system New Zealand rabbits; settings: confirmed using echographic examination of VX2 tumors in rabbits
Procedure: The ability of ultrasound contrast agents containing KDR binding lipopeptides of the invention to bind to KDR-expressing tissue in vivo was assessed using a known model of angiogenesis: the rabbit VX2 tumor model.
A known model of angiogenic tissue was used to examine the ability of the KDR-targeted ultrasound microbubbles to localize to and provide an image of angiogenic tissue. The VX2 rabbit carcinoma was serially implanted in the dorsal muscle of New Zealand rabbits (Charles River Laboratories, France) weighting 2.5/3kg.
Tumor was surgically removed, placed into McCoy's culture medium containing 10% fetal calf serum, antibiotics, 1.5 mM Glutamax I and cut into small pieces that were rinsed to remove blood and debris. Then tumor pieces (3 to 5 cm^3) were placed in a 50 ml Falcon tube containing 5 mL of complete medium. The tumor tissue was ground (Polytron) until no more solid pieces were visible. The murky fluid was centrifuged for 5 minutes at 300g and the supernatant discarded. Seven mL of fresh medium was added per 5 mL of pellet.
Rabbits received first 0.3 mL of Vetranquil (Acepromazine, Sanofi, injected intramuscularly) and were then anesthetized with an intramuscular injection of Ketaminol®5/Xylazine (Veterinaria AG/Sigma) mixture (50/10 mg/mL, 0.7 mL/kg). One hundred microliters of VX2 tumor homogenate was injected intramuscularly. Fifteen days after implantation of VX2 tumors, animals were anesthetized again with the same mixture, plus subcutaneous injection of 50% Urethane (2mL/kg, s.c.) (Sigma) for imaging experiments. […]
After bubble injection (0.1 µL/kg of gas) using the preparations of either Example 16 or Example 17, insonation was stopped allowing bubbles to accumulate for 25 minutes. […] The amount of free circulating bubbles was then assessed by recording the signal obtained after 20 sec accumulation without insonation. Video frames from VX2 tumor imaging experiments were captured with video-capture and analysed with Image-Pro Plus 2.0 software. […]

[3] = Storage stability: formation of lyso- compound (analytical HPLC); format: physicochemical; settings: after 5 days at room temperature; material after Zorbax C-3 preparative HPLC
Procedure: The present invention provides methods for producing dimeric peptide-phospholipid conjugates having very low levels of TFA. While certain methods provide for the synthesis and purification of such conjugates on a gram scale, formation of a lyso- version of the conjugates has been observed upon storage of lyophilized material at 5°C or upon storage of aqueous solutions of the conjugates. It is believed that the lyso- compound is formed by TFA-promoted acid hydrolysis of one of the phospholipid fatty acid esters in dimer peptide-phospholipid conjugates.
Materials used and conditions for the analytical HPLC system include the following: Column: Zorbax 300SB C-3; 3 mm i.d. x 150 mm; 3.5 µm particle; Eluent A : H2O (HPLC Grade with 0.1% TFA by volume); Eluent B: CH3CN (0.1% TFA by volume). Elution: Initial condition: 50% B then a linear gradient of 50-90% B over 3 min, hold at 90% B for 11 min; Flow rate: 0.5 mL/min; Detection: UV at 220 nm. Ret. time: (Compound (21)): 6.77 min, Rt (lyso): 4.06 min.
The fractions that contained (21) were combined and lyophilized to give a white fluffy solid. This was dissolved in water-acetonitrile, then lyophilized again. This provided 70 mg product devoid of the lyso- compound. The recovery was about 70%. After chromatography was completed, the system was washed with 95% B for 15 min at a flow rate of 30 mL/min. […]

KDR [4] = settings: as shown in co-pending U.S. Application No. 10/661,156; cited from earlier work
[5] = molecular target: Full-length KDR on transfected 293H cells (UniProt P35968); assay: static binding of targeted microbubbles (DSPC/DPPG envelope) on KDR-transfected 293H cells minus mock-transfected cells
[6] = molecular target: Full-length KDR on transfected 293H cells (UniProt P35968); assay: static binding of targeted microbubbles (DPPE/DPPG envelope) on KDR-transfected 293H cells minus mock-transfected cells
[7] = molecular target: Full-length KDR on transfected 293H cells (UniProt P35968); assay: static binding of targeted microbubbles (DSPC/DPPG envelope) on KDR-transfected 293H cells, 50% human plasma, microscopy
[8] = molecular target: Full-length KDR on transfected 293H cells (UniProt P35968); assay: static binding of targeted microbubbles (DPPE/DPPG envelope) on KDR-transfected 293H cells, 50% human plasma, microscopy

Sequence of UniProt P35968 (P35968 20-1356 limits assumed): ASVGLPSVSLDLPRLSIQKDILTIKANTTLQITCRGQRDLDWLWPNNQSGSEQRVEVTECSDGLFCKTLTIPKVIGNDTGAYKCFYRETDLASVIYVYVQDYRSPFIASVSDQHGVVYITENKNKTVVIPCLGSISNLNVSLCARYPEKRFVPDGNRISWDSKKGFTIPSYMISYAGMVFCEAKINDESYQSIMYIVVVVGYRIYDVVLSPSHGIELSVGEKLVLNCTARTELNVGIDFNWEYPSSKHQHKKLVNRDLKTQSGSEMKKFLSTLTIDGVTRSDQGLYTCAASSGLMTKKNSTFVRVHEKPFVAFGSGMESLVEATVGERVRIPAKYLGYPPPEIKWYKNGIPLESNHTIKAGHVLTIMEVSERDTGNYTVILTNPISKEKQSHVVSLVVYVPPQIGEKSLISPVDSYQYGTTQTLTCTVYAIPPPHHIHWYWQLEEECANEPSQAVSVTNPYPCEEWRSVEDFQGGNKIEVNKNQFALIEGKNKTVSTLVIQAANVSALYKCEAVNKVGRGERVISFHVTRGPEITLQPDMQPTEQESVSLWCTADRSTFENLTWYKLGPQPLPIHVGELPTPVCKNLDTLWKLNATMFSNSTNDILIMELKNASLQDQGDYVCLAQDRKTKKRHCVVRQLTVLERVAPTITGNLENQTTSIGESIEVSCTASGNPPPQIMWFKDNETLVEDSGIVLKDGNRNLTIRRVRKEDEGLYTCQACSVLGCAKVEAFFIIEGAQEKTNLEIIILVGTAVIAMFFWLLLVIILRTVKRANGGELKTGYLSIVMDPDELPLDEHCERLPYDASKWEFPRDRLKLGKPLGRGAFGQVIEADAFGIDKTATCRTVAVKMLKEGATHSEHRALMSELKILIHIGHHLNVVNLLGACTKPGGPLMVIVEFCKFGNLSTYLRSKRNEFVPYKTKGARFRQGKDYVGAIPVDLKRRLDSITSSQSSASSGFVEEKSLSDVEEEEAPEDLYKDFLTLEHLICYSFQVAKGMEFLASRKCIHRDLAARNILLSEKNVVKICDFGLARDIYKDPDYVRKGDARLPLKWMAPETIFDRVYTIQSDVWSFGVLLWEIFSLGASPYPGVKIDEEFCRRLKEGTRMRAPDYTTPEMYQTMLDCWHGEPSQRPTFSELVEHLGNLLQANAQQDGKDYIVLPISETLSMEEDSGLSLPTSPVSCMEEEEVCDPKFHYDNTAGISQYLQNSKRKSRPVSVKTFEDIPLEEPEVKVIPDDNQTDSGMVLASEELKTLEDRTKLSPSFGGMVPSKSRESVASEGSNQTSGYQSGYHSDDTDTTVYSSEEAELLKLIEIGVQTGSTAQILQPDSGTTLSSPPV

CC[C@H](C)[C@H](NC(=O)[C@H](CCC(=O)O)NC(=O)[C@H](CC(=O)O)NC(=O)[C@H](Cc1ccc(O)cc1)NC(=O)[C@H](Cc1ccc(O)cc1)NC(=O)[C@H](Cc1c[nH]c2ccccc12)NC(=O)[C@H](CC(=O)O)NC(=O)[C@H](CCC(N)=O)NC(=O)[C@H](C)NC(=O)[C@H](CCCNC(=N)N)NC(C)=O)C(=O)N[C@@H](CC(C)C)C(=O)N[C@@H](CO)C(=O)N[C@@H](CCSC)C(=O)N[C@@H](C)C(=O)N[C@@H](CC(=O)O)C(=O)N[C@@H](CCC(N)=O)C(=O)N[C@@H](CC(C)C)C(=O)N[C@@H](CCCNC(=N)N)C(=O)N[C@@H](Cc1c[nH]cn1)C(=O)N[C@@H](C)C(=O)N[C@@H](Cc1ccccc1)C(=O)N[C@@H](CC(C)C)C(=O)N[C@@H](CO)C(=O)NCC(=O)NCC(=O)NCC(=O)NCC(=O)NCC(=O)N[C@@H](CCCCN)C(N)=O [(2)]
binding affinity to KDR (KDR [1]): high affinity

Ac-AGPTWCEDDWYYCWLFGTGGGK{Ac-VCWEDSWGGEVCFRYDP-GGGK[-Adoa-Adoa-Glut-K(DSPE-PEG2000-NH-Glut)]-NH2 cyclic (2-12) disulfide}-NH2 cyclic (6-13) disulfide [(11)]
KDR binding of gas filled microbubbles formulated with the conjugate [2]: high KDR binding

Ac-AGPTWCEDDWYYCWLFGTGGGK{Ac-VCWEDSWGGEVCFRYDPGGGK[-Adoa-Adoa-Glut-K(DSPE-PEG2000-NH-Glut)]-NH2 cyclic (2-12) disulfide}-NH2 cyclic (6-13) disulfide [(21)]
formation of lyso- compound [3]: no lyso- compound formed

Ac-AQDWYYDEILSMADQLRHAFLSGGGGGK(DSPE-PEG2000-NH-Glut)-NH2 [(31)]
KDR binding of gas filled microbubbles formulated with the conjugate [2]: high KDR binding

Ac-AQDWYYDEILSMADQLRHAFLSGGGGGK-NH2 [(32)]
binding affinity to KDR (KDR [4]): high affinity

Ac-RAQDWYYDEILSMADQLRHAFLSGGGGGK(DSPE-PEG2000-NH-Glut)-NH2 (not fully specified; N-acetyl, C-amide, DSPE-PEG2000-NH-Glut lipid conjugate) [(1)]
KDR binding of gas filled microbubbles formulated with the conjugate [2]: high KDR binding

Ac-AQDWYYDEILSMADQLRHAFLSGGGGGK([Glutaryl-PEG2000-DSPE])-NH2 [monomeric peptide phospholipid conjugate (31)]
% of surface covered by bound microbubbles (KDR-Mock) [5]: 27.7% | % of surface covered by bound microbubbles (KDR-Mock) [6]: 23.5% | % of surface covered by bound microbubbles (KDR) [7]: 28% | % of surface covered by bound microbubbles (KDR) [8]: 23.6%
